Source: patent US20210045385A1, “PYRIDAZINONE-SUBSTITUTED KETOXIMES AS HERBICIDES” (FMC Corporation, priority 2018, published 2021)

Assays:
Assay type in all cases: in vivo
[1] = system: sedge, umbrella (small-flower umbrella sedge, Cyperus difformis); experiment: Test B flooded paddy test, visual plant response rating; conditions: 250 g ai/ha, Flood, applied to paddy water, 2-leaf stage, evaluated after 13 to 15 days
Procedure, shortened: (§1)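 2-leaf plants; pots flooded 3 cm over soil surface; compound dosed straight into the floodwater; depth kept constant; greenhouse 13–15 d; visual rating vs. untreated controls.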

[2] = system: barnyardgrass (Echinochloa crus-galli); experiment: as above; conditions: 250 g ai/ha, Flood, applied to paddy water, 2-leaf stage, evaluated after 13 to 15 days
Procedure, shortened: as §1

rice (Oryza sativa) = experiment: as above; conditions: 250 g ai/ha, Flood, applied to paddy water, 2-leaf stage, evaluated after 13 to 15 days
Procedure, shortened: as §1

[3] = system: ducksalad (Heteranhera limosa); experiment: as above; conditions: 250 g ai/ha, Flood, applied to paddy water, 2-leaf stage, evaluated after 13 to 15 days
Procedure, shortened: as §1

[4] = system: wheat (Triticum aestivum); experiment: Test A postemergence, visual plant response rating; conditions: for Wheat plant response rating: 0 to 100 scale (0 no effect, 100 complete control)
Procedure, shortened: (§2)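 Ratings 0–100 (100 = complete control), visual, vs untreated controls at ~10 days. Application pre- or postemergence; solvent mixture with surfactant; loam/sand medium.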

[5] = system: Italian ryegrass (Lolium multiflorum); experiment: Test A postemergence, visual plant response rating
Procedure, shortened: as §2

[6] = system: ragweed (common ragweed, Ambrosia elatior); experiment: Test A postemergence, visual plant response rating; conditions: for Ragweed plant response rating (0 to 100 scale): 500 g ai/ha, postemergence, 0 is no effect, 100 is complete control; for Ragweed plant response rating: Postemergence, 125 g ai/ha, 0 to 100 scale (0 no effect, 100 complete control)
Procedure, shortened: as §2

[7] = system: galium (catchweed bedstraw, Galium aparine); experiment: Test A postemergence, visual plant response rating; conditions: for Galium plant response rating (0 to 100 scale): 500 g ai/ha, postemergence, 0 is no effect, 100 is complete control; for Galium plant response rating: Postemergence, 125 g ai/ha, 0 to 100 scale (0 no effect, 100 complete control)
Procedure, shortened: as §2

kochia (Kochia scoparia) [8] = experiment: Test A postemergence, visual plant response rating; conditions: for Kochia plant response rating (0 to 100 scale): 500 g ai/ha, postemergence, 0 is no effect, 100 is complete control; for Kochia plant response rating: Postemergence, 125 g ai/ha, 0 to 100 scale (0 no effect, 100 complete control)
Procedure, shortened: as §2

[9] = system: foxtail, giant (giant foxtail, Setaria faberii); experiment: Test A postemergence, visual plant response rating; conditions: for Foxtail, Giant plant response rating (0 to 100 scale): 500 g ai/ha, postemergence, 0 is no effect, 100 is complete control; for Foxtail, Giant plant response rating: Postemergence, 125 g ai/ha, 0 to 100 scale (0 no effect, 100 complete control)
Procedure, shortened: as §2

[10] = system: barnyardgrass (Echinochloa crus-galli); experiment: Test A postemergence, visual plant response rating; conditions: for Barnyardgrass plant response rating (0 to 100 scale): 500 g ai/ha, postemergence, 0 is no effect, 100 is complete control; for Barnyardgrass plant response rating: Postemergence, 125 g ai/ha, 0 to 100 scale (0 no effect, 100 complete control)
Procedure, shortened: as §2

[11] = system: blackgrass (Alopecurus myosuroides); experiment: Test A postemergence, visual plant response rating; conditions: for Blackgrass plant response rating (0 to 100 scale): 500 g ai/ha, postemergence, 0 is no effect, 100 is complete control; for Blackgrass plant response rating: Postemergence, 125 g ai/ha, 0 to 100 scale (0 no effect, 100 complete control)
Procedure, shortened: as §2

[12] = system: pigweed (Amaranthus retroflexus); experiment: Test A postemergence, visual plant response rating; conditions: for Pigweed plant response rating (0 to 100 scale): 500 g ai/ha, postemergence, 0 is no effect, 100 is complete control; for Pigweed plant response rating: Postemergence, 125 g ai/ha, 0 to 100 scale (0 no effect, 100 complete control)
Procedure, shortened: as §2

corn (Zea mays) = experiment: Test A postemergence, visual plant response rating; conditions: for Corn plant response rating (0 to 100 scale): 500 g ai/ha, postemergence, 0 is no effect, 100 is complete control; for Corn plant response rating: Postemergence, 125 g ai/ha, 0 to 100 scale (0 no effect, 100 complete control)
Procedure, shortened: as §2

[13] = system: Italian ryegrass (Lolium multiflorum); experiment: Test A preemergence, visual plant response rating; conditions: for Ryegrass, Italian plant response rating: 125 g ai/ha, preemergence, 0 to 100 scale, 0 no effect, 100 complete control; for Ryegrass, Italian plant response rating (0 to 100 scale): 500 g ai/ha Preemergence, approx. 10 days
Procedure, shortened: as §2

[14] = system: ragweed (common ragweed, Ambrosia elatior); experiment: Test A preemergence, visual plant response rating; conditions: for Ragweed plant response rating: 125 g ai/ha, preemergence, 0 to 100 scale, 0 no effect, 100 complete control; for Ragweed plant response rating (0 to 100 scale): 500 g ai/ha Preemergence, approx. 10 days
Procedure, shortened: as §2

kochia (Kochia scoparia) [15] = experiment: Test A preemergence, visual plant response rating; conditions: for Kochia plant response rating: 125 g ai/ha, preemergence, 0 to 100 scale, 0 no effect, 100 complete control; for Kochia plant response rating (0 to 100 scale): 500 g ai/ha Preemergence, approx. 10 days
Procedure, shortened: as §2

[16] = system: foxtail, giant (giant foxtail, Setaria faberii); experiment: Test A preemergence, visual plant response rating; conditions: for Foxtail, Giant plant response rating: 125 g ai/ha, preemergence, 0 to 100 scale, 0 no effect, 100 complete control; for Foxtail, Giant plant response rating (0 to 100 scale): 500 g ai/ha Preemergence, approx. 10 days
Procedure, shortened: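 Compared with untreated controls, treated plants received a visual injury score on a 0–100 scale around 10 days after application. The compound, in a non-phytotoxic solvent with surfactant, was given as a preemergence soil spray or postemergence at the one- to two-leaf stage.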

[17] = system: barnyardgrass (Echinochloa crus-galli); experiment: Test A preemergence, visual plant response rating; conditions: for Barnyardgrass plant response rating: 125 g ai/ha, preemergence, 0 to 100 scale, 0 no effect, 100 complete control; for Barnyardgrass plant response rating (0 to 100 scale): 500 g ai/ha Preemergence, approx. 10 days
Procedure, shortened: as §2

[18] = system: pigweed (Amaranthus retroflexus); experiment: Test A preemergence, visual plant response rating; conditions: for Pigweed plant response rating: 125 g ai/ha, preemergence, 0 to 100 scale, 0 no effect, 100 complete control; for Pigweed plant response rating (0 to 100 scale): 500 g ai/ha Preemergence, approx. 10 days
Procedure, shortened: as §2

[19] = 500 g ai/ha, postemergence, 0 is no effect, 100 is complete control

CO/N=C(/c1c(O)c(Cl)nn(C)c1=O)c1cccc2ccccc12 [Compound 145, 6-chloro-5-hydroxy-4-[(E)-(methoxyimino)-1-naphthalenylmethyl]-2-methyl-3(2H)-pyridazinone]
Plant response rating, Sedge, Umbrella (0 to 100 scale, 0 is no effect, 100 is complete control) [1]: 0
Plant response rating, Barnyardgrass (0 to 100 scale, 0 is no effect, 100 is complete control) [2]: 0
Plant response rating, Rice (0 to 100 scale, 0 is no effect, 100 is complete control) (rice (Oryza sativa)): 0
Plant response rating, Ducksalad (0 to 100 scale, 0 is no effect, 100 is complete control) [3]: 0
Wheat plant response rating ([4]; Postemergence, 500 g ai/ha): 0
Wheat plant response rating (0 to 100 scale) ([4]; Postemergence, approx. 10 days): 0
Ryegrass, Italian plant response rating (0 to 100 scale) [5, 19]: 10
Ryegrass, Italian plant response rating (0 to 100 scale) ([5]; Postemergence, rate not given, approx. 10 days): 20
Ragweed plant response rating (0 to 100 scale) [6]: 100
Ragweed plant response rating [6]: 100
Galium plant response rating (0 to 100 scale) [7]: 100
Galium plant response rating [7]: 90
Kochia plant response rating (0 to 100 scale) (kochia (Kochia scoparia) [8]): 90
Kochia plant response rating (kochia (Kochia scoparia) [8]): 80
Foxtail, Giant plant response rating (0 to 100 scale) [9]: 60
Foxtail, Giant plant response rating [9]: 30
Barnyardgrass plant response rating (0 to 100 scale) [10]: 60
Barnyardgrass plant response rating [10]: 30
Blackgrass plant response rating (0 to 100 scale) [11]: 70
Blackgrass plant response rating [11]: 30
Pigweed plant response rating (0 to 100 scale) [12]: 80
Pigweed plant response rating [12]: 30
Corn plant response rating (0 to 100 scale) (corn (Zea mays)): 0
Corn plant response rating (corn (Zea mays)): 0
Ryegrass, Italian plant response rating [13]: 0
Ryegrass, Italian plant response rating (0 to 100 scale) [13]: 10
Ragweed plant response rating [14]: 100
Ragweed plant response rating (0 to 100 scale) [14]: 100
Kochia plant response rating (kochia (Kochia scoparia) [15]): 70
Kochia plant response rating (0 to 100 scale) (kochia (Kochia scoparia) [15]): 90
Foxtail, Giant plant response rating [16]: 50
Foxtail, Giant plant response rating (0 to 100 scale) [16]: 80
Barnyardgrass plant response rating [17]: 60
Barnyardgrass plant response rating (0 to 100 scale) [17]: 80
Pigweed plant response rating [18]: 50
Pigweed plant response rating (0 to 100 scale) [18]: 90

CON=C(c1cc(C)ccc1Cl)c1c(O)c(C)nn(C)c1=O [Compound 67]
Plant response rating, Sedge, Umbrella (0 to 100 scale, 0 is no effect, 100 is complete control) [1]: 0
Plant response rating, Barnyardgrass (0 to 100 scale, 0 is no effect, 100 is complete control) [2]: 0
Plant response rating, Rice (0 to 100 scale, 0 is no effect, 100 is complete control) (rice (Oryza sativa)): 0
Plant response rating, Ducksalad (0 to 100 scale, 0 is no effect, 100 is complete control) [3]: 0
Wheat plant response rating (0 to 100 scale) [4, 19]: 0
Wheat plant response rating ([4]; Postemergence, 125 g ai/ha): 0
Ryegrass, Italian plant response rating (0 to 100 scale) [5, 19]: 20
Ryegrass, Italian plant response rating ([5]; Postemergence, 125 g ai/ha, 0 to 100 scale (0 no effect, 100 complete control)): 10
Ragweed plant response rating (0 to 100 scale) [6]: 70
Ragweed plant response rating [6]: 50
Galium plant response rating (0 to 100 scale) [7]: 80
Galium plant response rating [7]: 70
Kochia plant response rating (0 to 100 scale) (kochia (Kochia scoparia) [8]): 20
Kochia plant response rating (kochia (Kochia scoparia) [8]): 20
Foxtail, Giant plant response rating (0 to 100 scale) [9]: 10
Foxtail, Giant plant response rating [9]: 0
Barnyardgrass plant response rating (0 to 100 scale) [10]: 0
Barnyardgrass plant response rating [10]: 0
Blackgrass plant response rating (0 to 100 scale) [11]: 30
Blackgrass plant response rating [11]: 0
Pigweed plant response rating (0 to 100 scale) [12]: 30
Pigweed plant response rating [12]: 0
Corn plant response rating (0 to 100 scale) (corn (Zea mays)): 0
Corn plant response rating (corn (Zea mays)): 0
Ryegrass, Italian plant response rating [13]: 0
Ryegrass, Italian plant response rating (0 to 100 scale) [13]: 10
Ragweed plant response rating [14]: 10
Ragweed plant response rating (0 to 100 scale) [14]: 10
Kochia plant response rating (kochia (Kochia scoparia) [15]): 0
Kochia plant response rating (0 to 100 scale) (kochia (Kochia scoparia) [15]): 10
Foxtail, Giant plant response rating [16]: 0
Foxtail, Giant plant response rating (0 to 100 scale) [16]: 0
Barnyardgrass plant response rating [17]: 0
Barnyardgrass plant response rating (0 to 100 scale) [17]: 0
Pigweed plant response rating [18]: 0
Pigweed plant response rating (0 to 100 scale) [18]: 0
